Values after ≈ are worked out from the molar mass of the structure shown.
Experiments:
HSV-1TK+ = assay: In vivo guinea pig HSV-1TK+ lesion test, topical solution; details: guinea pigs; for TK+ (average number of lesions): five days after treatment
Procedure: Compound 2 also was tested in vivo in guinea pigs as an agent against HSV-1TK^+. The animals were inoculated with the virus; 18 hours later Compound 2 at two concentrations (0.4% and 1-2% (saturated) solution in water) was administered, and five days later blister diameters at the point of inoculation were measured. A 5% solution of acyclovir or a 1.4% solution of poly(vinylalcohol) was used as control. Satellite lesions were measured, as well.

[1] = Cytotoxicity (maximum tolerated dose), control tests in 96-well microplates; format: cell-based; details: Table 5; microscopic examination, separately run control tests; read-out: Approx. MTD (dose causing approximately 50% cytotoxic effects in cells)
Source text: (§1) ^b Maximum tolerated dose: That dose causing approximately 50%
(§2) cytotoxic effects in cells, determined by the microscopic examination of
(§3) cells for sloughing, shape alteration, and granularity in separately run
(§4) control tests in 96well microplates.
(§5) The data on acyclovir were gathered from tests run in MRC-5 cells grown under agarose overlay, with plaques read 7 days after virus exposure.

cells = assay: as above; format: cell-based; details: overall, Table 5
Source text: as §1, §2, §3, §4, §5

[2] = 1-2% (saturated) solution in water

CCOP(=O)(O)CCCOCn1cnc2c(=O)[nH]c(N)nc21 [Compound 2, 9(3'-ethylphosphono-1'-propyloxymethyl)guanine]
Satellite lesions (HSV-1TK+; 0.4% solution in water): 11 | TK+ (average number of lesions) (HSV-1TK+; 0.4% solution in water): 2.1 | Satellite lesions (HSV-1TK+; [2]): 6 | TK+ (average number of lesions) (HSV-1TK+; [2]): 0.9 | activity against HSV TK+ virus in vivo (HSV-1TK+; at least in saturated solution): has activity | CC50 [1]: ~1000 µg/mL (≈ 3.02 mM) | cytotoxicity relative to acyclovir (cells): approximately the same
